The experiment is described as follows: DPPH radical scavenging activity. Type of experiment: functional.

`Oc1ccc([C@H]2OC[C@H](O)[C@@H]2O)cc1O`: the EC50 was determined as 0.14 mol/mol.
The same measure for `O=C(O)/C=C/c1ccc(O)c(O)c1` [CAFFEIC ACID]: 0.11 mol/mol.
The same measure for `O=C(O)c1ccc(O)c(O)c1` [PROTOCATECHUIC ACID]: 0.14 mol/mol.
The value for `Cc1cc(C(C)(C)C)c(O)c(C(C)(C)C)c1` [BUTYLATED HYDROXYTOLUENE] was 0.23 mol/mol.

These data come from ChEMBL document CHEMBL1139724, “Synthesis and free radical scavenging activity of a novel metabolite from the fungus Colletotrichum gloeosporioides” (Bioorg Med Chem Lett, 2006).
